Drawing on patent US12097241B2, “Methods of treating kidney failure, and/or improving or stablizing renal function using modified relaxin polypeptides” (BRISTOL-MYERS SQUIBB COMPANY, priority 2017, dated 2024), this text covers EC50 for five compounds.

Structures are written as SMILES.

This test concerns the target T1, human RXFP1 receptor (Homo sapiens, UniProt Q9HBX9).
T1 construct: expressed in transfected cells
T1 sequence (Q9HBX9 1-757): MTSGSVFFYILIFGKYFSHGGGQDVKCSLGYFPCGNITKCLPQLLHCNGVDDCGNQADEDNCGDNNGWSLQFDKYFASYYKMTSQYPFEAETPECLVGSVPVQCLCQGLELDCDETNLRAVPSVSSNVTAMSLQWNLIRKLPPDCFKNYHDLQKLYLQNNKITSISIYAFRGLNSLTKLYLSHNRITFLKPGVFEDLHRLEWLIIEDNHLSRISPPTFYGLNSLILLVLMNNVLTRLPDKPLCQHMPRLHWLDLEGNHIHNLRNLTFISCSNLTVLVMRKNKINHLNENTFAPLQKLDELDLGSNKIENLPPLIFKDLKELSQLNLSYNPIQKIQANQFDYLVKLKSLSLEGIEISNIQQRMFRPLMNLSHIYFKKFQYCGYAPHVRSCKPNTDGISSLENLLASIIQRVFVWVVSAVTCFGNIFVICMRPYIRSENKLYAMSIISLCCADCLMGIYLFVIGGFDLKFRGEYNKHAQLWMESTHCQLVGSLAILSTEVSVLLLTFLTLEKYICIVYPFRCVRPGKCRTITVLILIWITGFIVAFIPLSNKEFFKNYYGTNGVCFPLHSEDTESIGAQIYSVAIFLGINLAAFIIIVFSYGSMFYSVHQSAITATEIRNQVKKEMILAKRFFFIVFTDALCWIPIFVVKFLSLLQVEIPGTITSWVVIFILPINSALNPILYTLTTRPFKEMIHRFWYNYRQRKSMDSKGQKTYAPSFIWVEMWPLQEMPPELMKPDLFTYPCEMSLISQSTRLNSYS
In words: Intracellular cAMP accumulation assay. In kind it is cell-based. For orientation: Changes in cAMP serve as a functional read-out for many G protein-coupled receptors.
Protocol: The intracellular cAMP accumulation assay described herein was used to assess relaxin bioactivity and potency.
CHO-K1 cells (ATCC; Cat. #CRL-9618) stably expressing the human RXFP1 receptor (locus number LOC59350) (10,000/well) were plated into 96-well plates and cultured overnight at 37° C. and 5% CO2. On the following day, the medium was removed from the wells and the cells were stimulated with the addition of ligand (relaxin polypeptide) in 50 uL buffer (1×HBSS, 5 mM HEPES (7.2), 0.5 mM IBMX, 0.1% BSA); incubation was for 10 min at 37° C. Unstimulated cells were utilized as reference controls. Reactions were terminated and cellular cAMP levels were measured using the Homogeneous Time Resolved Fluorescence (HTRF) Dynamic 2 cAMP kit (CisBio, #62AM4PEC) according to the manufacturer's protocol. Plates were analyzed using an EnVision 2104 Multilablel Reader (PerkinElmer). Signal was expressed in terms of the ratio of fluorescence intensity @ 665 nm/fluorescence intensity @620 nm×10,000. The concentration of cAMP in the sample was determined by comparison with standard curves generated from known concentrations of cAMP. The potency of each relaxin was determined using a ten-point concentration response curves which was performed in duplicate. The data were analyzed using Microsoft Excel, Version 2013 Xlfit software. Effective concentration 50 (EC50) values, the point at which the response was one-half maximal, were calculated using a four-parameter logistic equation that allowed for a variable-slope (Table 3).
In general, EC50 refers to the concentration needed to bring the measured effect to its halfway point. With `CCCCCCCCCCCCCCC(=O)NCC(=O)NCC(=O)NCC(=O)N[C@@H](CCC(=O)O)C(=O)N[C@@H](CCC(=O)O)C(=O)N1CCC[C@H]1C(=O)N[C@@H](CCC(=O)O)C(=O)N[C@@H](CCC(=O)O)C(=O)N[C@@H](CCC(=O)O)C(=O)N[C@@H](CCC(=O)O)C(=O)N1CCC[C@H]1C(=O)N[C@@H](CCC(=O)O)C(=O)N[C@@H](CCC(=O)O)C(=O)N[C@@H](CCC(=O)O)C(=O)N[C@@H](CCC(=O)O)C(=O)N1CCC[C@H]1C(=O)N[C@@H](CCC(=O)O)C(=O)N[C@@H](CCC(=O)O)C(=O)N[C@@H](CCC(=O)O)C(=O)N[C@@H](CCC(=O)O)C(=O)NCCON=C(C)c1ccc(C[C@H](N)C(=O)N[C@@H](CC(C)C)C(=O)N[C@@H](Cc2ccc(O)cc2)C(=O)N[C@@H](CO)C(=O)N[C@@H](C)C(=O)N[C@@H](CC(C)C)C(=O)N[C@@H](C)C(=O)N[C@@H](CC(N)=O)C(=O)N[C@@H](CCCCN)C(=O)N[C@H]2CSSC[C@@H]3NC(=O)CNC(=O)[C@H](C(C)C)NC(=O)[C@H](Cc4c[nH]cn4)NC(=O)[C@H](CSSC[C@H](NC(=O)[C@H](CC(C)C)NC(=O)[C@H](CCCCN)NC(=O)[C@@H](NC(=O)[C@@H](NC(=O)[C@H](CCC(=O)O)NC(=O)[C@H](CCC(=O)O)NC(=O)[C@H](CCSC)NC(=O)[C@H](Cc4c[nH]c5ccccc45)NC(=O)[C@H](CO)NC(=O)[C@H](C)N)C(C)C)[C@@H](C)CC)C(=O)NCC(=O)N[C@@H](CCCNC(=N)N)C(=O)N[C@@H](CCC(=O)O)C(=O)N[C@@H](CC(C)C)C(=O)N[C@@H](C(C)C)C(=O)N[C@@H](CCCNC(=N)N)C(=O)N[C@@H](C)C(=O)N[C@@H](CCC(N)=O)C(=O)N[C@@H]([C@@H](C)CC)C(=O)N[C@@H](C)C(=O)N[C@@H]([C@@H](C)CC)C(=O)N[C@H](C(=O)NCC(=O)N[C@@H](CCSC)C(=O)N[C@@H](CO)C(=O)N[C@H](C(=O)N[C@@H](Cc4c[nH]c5ccccc45)C(=O)N[C@@H](CO)C(=O)O)[C@@H](C)O)CSSC[C@@H](C(=O)O)NC(=O)[C@H](Cc4ccccc4)NC(=O)[C@H](CCCNC(=N)N)NC(=O)[C@H](C)NC(=O)[C@H](CC(C)C)NC(=O)[C@H](CO)NC(=O)[C@H](CCCNC(=N)N)NC(=O)[C@H](CCCCN)NC(=O)[C@H]([C@@H](C)O)NC3=O)NC2=O)cc1`, the midpoint of the response, the EC50, lay at 0.16 nM.

Regarding `CC[C@H](C)[C@@H]1NC(=O)[C@H](C)NC(=O)[C@H]([C@@H](C)CC)NC(=O)[C@H](CCC(N)=O)NC(=O)[C@H](C)NC(=O)[C@H](CCCNC(=N)N)NC(=O)[C@H](C(C)C)NC(=O)[C@H](CC(C)C)NC(=O)[C@H](CCC(=O)O)NC(=O)[C@H](CCCNC(=N)N)NC(=O)CNC(=O)[C@@H](NC(=O)[C@H](CC(C)C)NC(=O)[C@H](CCCCN)NC(=O)[C@@H](NC(=O)[C@@H](NC(=O)[C@H](CCC(=O)O)NC(=O)[C@H](CCC(=O)O)NC(=O)[C@H](CCSC)NC(=O)[C@H](Cc2c[nH]c3ccccc23)NC(=O)[C@H](CO)NC(=O)[C@H](C)N)C(C)C)[C@@H](C)CC)CSSC[C@@H]2NC(=O)[C@@H](NC(=O)[C@H](CCCCN)NC(=O)[C@H](CC(N)=O)NC(=O)[C@H](C)NC(=O)[C@H](CC(C)C)NC(=O)[C@H](C)NC(=O)[C@H](CO)NC(=O)[C@H](Cc3ccc(O)cc3)NC(=O)[C@H](CC(C)C)NC(=O)[C@@H](N)Cc3ccc(/C(C)=N/OCCNC(=O)CN(C)C(=O)CN(C)C(=O)CN(C)C(=O)CN(C)C(=O)[C@H](CO)NC(=O)CN(C)C(=O)CN(C)C(=O)CN(C)C(=O)CN(C)C(=O)CC[C@H](NC(=O)CCCCCCCCCCCCC(=O)O)C(=O)O)cc3)CSSC[C@H](NC(=O)CNC(=O)[C@H](C(C)C)NC(=O)[C@H](Cc3c[nH]cn3)NC2=O)C(=O)N[C@@H]([C@@H](C)O)C(=O)N[C@@H](CCCCN)C(=O)N[C@@H](CCCNC(=N)N)C(=O)N[C@@H](CO)C(=O)N[C@@H](CC(C)C)C(=O)N[C@@H](C)C(=O)N[C@@H](CCCNC(=N)N)C(=O)N[C@@H](Cc2ccccc2)C(=O)N[C@H](C(=O)O)CSSC[C@@H](C(=O)NCC(=O)N[C@@H](CCSC)C(=O)N[C@@H](CO)C(=O)N[C@H](C(=O)N[C@@H](Cc2c[nH]c3ccccc23)C(=O)N[C@@H](CO)C(=O)O)[C@@H](C)O)NC1=O`, the EC50 worked out at 0.39 nM.

For the compound `CC[C@H](C)[C@@H]1NC(=O)[C@H](C)NC(=O)[C@H]([C@@H](C)CC)NC(=O)[C@H](CCC(N)=O)NC(=O)[C@H](C)NC(=O)[C@H](CCCNC(=N)N)NC(=O)[C@H](C(C)C)NC(=O)[C@H](CC(C)C)NC(=O)[C@H](CCC(=O)O)NC(=O)[C@H](CCCNC(=N)N)NC(=O)CNC(=O)[C@@H](NC(=O)[C@H](CC(C)C)NC(=O)[C@H](CCCCN)NC(=O)[C@@H](NC(=O)[C@@H](NC(=O)[C@H](CCC(=O)O)NC(=O)[C@H](CCC(=O)O)NC(=O)[C@H](CCSC)NC(=O)[C@H](Cc2c[nH]c3ccccc23)NC(=O)[C@H](CO)NC(=O)[C@H](C)N)C(C)C)[C@@H](C)CC)CSSC[C@@H]2NC(=O)[C@@H](NC(=O)[C@H](CCCCN)NC(=O)[C@H](CC(N)=O)NC(=O)[C@H](C)NC(=O)[C@H](CC(C)C)NC(=O)[C@H](C)NC(=O)[C@H](CO)NC(=O)[C@H](Cc3ccc(O)cc3)NC(=O)[C@H](CC(C)C)NC(=O)[C@@H](N)Cc3ccc(C(C)=NOCCNC(=O)[C@H](CCC(=O)O)NC(=O)CNC(=O)CNC(=O)[C@H](CO)NC(=O)CC[C@H](NC(=O)CCCCCCCCCCCCCC(=O)O)C(=O)O)cc3)CSSC[C@H](NC(=O)CNC(=O)[C@H](C(C)C)NC(=O)[C@H](Cc3c[nH]cn3)NC2=O)C(=O)N[C@@H]([C@@H](C)O)C(=O)N[C@@H](CCCCN)C(=O)N[C@@H](CCCNC(=N)N)C(=O)N[C@@H](CO)C(=O)N[C@@H](CC(C)C)C(=O)N[C@@H](C)C(=O)N[C@@H](CCCNC(=N)N)C(=O)N[C@@H](Cc2ccccc2)C(=O)N[C@H](C(=O)O)CSSC[C@@H](C(=O)NCC(=O)N[C@@H](CCSC)C(=O)N[C@@H](CO)C(=O)N[C@H](C(=O)N[C@@H](Cc2c[nH]c3ccccc23)C(=O)N[C@@H](CO)C(=O)O)[C@@H](C)O)NC1=O` [AQ1-EGGS-Glu^γ-C14-COOH], a half-maximal effect (EC50) was put at 0.33 nM.

As for `CC[C@H](C)[C@@H]1NC(=O)[C@H](C)NC(=O)[C@H]([C@@H](C)CC)NC(=O)[C@H](CCC(N)=O)NC(=O)[C@H](C)NC(=O)[C@H](CCCNC(=N)N)NC(=O)[C@H](C(C)C)NC(=O)[C@H](CC(C)C)NC(=O)[C@H](CCC(=O)O)NC(=O)[C@H](CCCNC(=N)N)NC(=O)CNC(=O)[C@@H](NC(=O)[C@H](CC(C)C)NC(=O)[C@H](CCCCN)NC(=O)[C@@H](NC(=O)[C@@H](NC(=O)[C@H](CCC(=O)O)NC(=O)[C@H](CCC(=O)O)NC(=O)[C@H](CCSC)NC(=O)[C@H](Cc2c[nH]c3ccccc23)NC(=O)[C@H](CO)NC(=O)[C@H](C)N)C(C)C)[C@@H](C)CC)CSSC[C@@H]2NC(=O)[C@@H](NC(=O)[C@H](CCCCN)NC(=O)[C@H](CC(N)=O)NC(=O)[C@H](C)NC(=O)[C@H](CC(C)C)NC(=O)[C@H](C)NC(=O)[C@H](CO)NC(=O)[C@H](Cc3ccc(O)cc3)NC(=O)[C@H](CC(C)C)NC(=O)[C@@H](N)Cc3ccc(C(C)=NOCCNC(=O)[C@H](CCCCN)NC(=O)[C@H](CCCCN)NC(=O)CC[C@H](NC(=O)CCCCCCCCCCCCC(=O)O)C(=O)O)cc3)CSSC[C@H](NC(=O)CNC(=O)[C@H](C(C)C)NC(=O)[C@H](Cc3c[nH]cn3)NC2=O)C(=O)N[C@@H]([C@@H](C)O)C(=O)N[C@@H](CCCCN)C(=O)N[C@@H](CCCNC(=N)N)C(=O)N[C@@H](CO)C(=O)N[C@@H](CC(C)C)C(=O)N[C@@H](C)C(=O)N[C@@H](CCCNC(=N)N)C(=O)N[C@@H](Cc2ccccc2)C(=O)N[C@H](C(=O)O)CSSC[C@@H](C(=O)NCC(=O)N[C@@H](CCSC)C(=O)N[C@@H](CO)C(=O)N[C@H](C(=O)N[C@@H](Cc2c[nH]c3ccccc23)C(=O)N[C@@H](CO)C(=O)O)[C@@H](C)O)NC1=O` [AQ1-KK-Glu^γ-C13-COOH], the EC50 amounted to 0.1 nM.

`CC[C@H](C)[C@@H]1NC(=O)[C@H](C)NC(=O)[C@H]([C@@H](C)CC)NC(=O)[C@H](CCC(N)=O)NC(=O)[C@H](C)NC(=O)[C@H](CCCNC(=N)N)NC(=O)[C@H](C(C)C)NC(=O)[C@H](CC(C)C)NC(=O)[C@H](CCC(=O)O)NC(=O)[C@H](CCCNC(=N)N)NC(=O)CNC(=O)[C@@H](NC(=O)[C@H](CC(C)C)NC(=O)[C@H](CCCCN)NC(=O)[C@@H](NC(=O)[C@@H](NC(=O)[C@H](CCC(=O)O)NC(=O)[C@H](CCC(=O)O)NC(=O)[C@H](CCSC)NC(=O)[C@H](Cc2c[nH]c3ccccc23)NC(=O)[C@H](CO)NC(=O)[C@H](C)N)C(C)C)[C@@H](C)CC)CSSC[C@@H]2NC(=O)[C@@H](NC(=O)[C@H](CCCCN)NC(=O)[C@H](CC(N)=O)NC(=O)[C@H](C)NC(=O)[C@H](CC(C)C)NC(=O)[C@H](C)NC(=O)[C@H](CO)NC(=O)[C@H](Cc3ccc(O)cc3)NC(=O)[C@H](CC(C)C)NC(=O)[C@@H](N)Cc3ccc(/C(C)=N/OCCNC(=O)[C@H](CCCCN)NC(=O)CNC(=O)CNC(=O)CNC(=O)[C@H](CO)NC(=O)CC[C@H](NC(=O)CCCCCCCCCCCCCC(=O)O)C(=O)O)cc3)CSSC[C@H](NC(=O)CNC(=O)[C@H](C(C)C)NC(=O)[C@H](Cc3c[nH]cn3)NC2=O)C(=O)N[C@@H]([C@@H](C)O)C(=O)N[C@@H](CCCCN)C(=O)N[C@@H](CCCNC(=N)N)C(=O)N[C@@H](CO)C(=O)N[C@@H](CC(C)C)C(=O)N[C@@H](C)C(=O)N[C@@H](CCCNC(=N)N)C(=O)N[C@@H](Cc2ccccc2)C(=O)N[C@H](C(=O)O)CSSC[C@@H](C(=O)NCC(=O)N[C@@H](CCSC)C(=O)N[C@@H](CO)C(=O)N[C@H](C(=O)N[C@@H](Cc2c[nH]c3ccccc23)C(=O)N[C@@H](CO)C(=O)O)[C@@H](C)O)NC1=O` [AQ1-KGGGS-Glu^γ-C14-COOH] came in with an EC50 of 0.34 nM.
